Source: patent US9303017B2, “2,5-disubstituted-pyridyl nicotinic ligands, and methods of use thereof” (Georgetown University, priority 2011, dated 2016)
Counter-ions that a name gives are not always drawn. Like-named read-outs stand apart in the source and are kept apart here.

How the values were obtained:
α4β2 nAChR = α4β2 nAChR (Rattus norvegicus (Rat), UniProt P09483+P12390); assay: biochemical; type: binding; conditions: for Ki Ratio α3β4/α4β2: selectivity for α4β2 over α3β4; for Ki Ratio α7/α4β2: selectivity for α4β2 over α7
Method: (§1) In Vitro Binding Affinities for nAChR Subtypes. […] To determine selectivities of these compounds in binding assays among the three predominant nAChR subtypes, α3β4, α4β2 and α7, the ratios of Ki values (α3β4/α4β2 and α7/α4β2) were determined.
(§2) Cell Lines and Cell Culture. The cell lines expressing defined rat nAChR subtypes were established previously by stably transfecting HEK 293 cells with rat nAChR subunit genes. The cell line expressing human α4β2 nAChRs, YXα4β2H1, was established recently. These cell lines were maintained in minimum essential medium (MEM) supplemented with 10% fetal bovine serum, 100 units/mL penicillin G, […] and selective antibiotics at 37° C. with 5% CO2 in a humidified incubator. Fetal bovine serum was provided by Gemini Bio-Products (Woodland, Calif.). Tissue culture medium and antibiotics were obtained from Invitrogen Corporation (Carlsbad, Calif.), unless otherwise stated.
(§3) Briefly, cultured cells at >80% confluence were removed from their flasks (80 cm^2) with a disposable cell scraper and placed in 10 mL of 50 mM Tris.HCl buffer (pH 7.4, 4° C.). The cell suspension was centrifuged at 10,000×g for 5 min and the pellet was collected. The cell pellet was then homogenized in 10 mL buffer with a polytron homogenizer and centrifuged at 36,000 g for 10 min at 4° C. The membrane pellet was resuspended in fresh buffer, and aliquots of the membrane preparation were used for binding assays. […] Bound and free ligands were separated by vacuum filtration through Whatman GF/C filters treated with 0.5% polyethylenimine. The filter-retained radioactivity was measured by liquid scintillation counting. Specific binding was defined as the difference between total binding and nonspecific binding. Data from competition binding assays were analyzed using Prism 5 (GraphPad Software, San Diego, Calif.).
(§4) Pharmacological Properties. We measured the in vitro binding affinities of the ligands for defined receptor subtypes (α2β2, α2β4, α3β2, α3β4, α4β2, α4β4, α6β2, α6β4, and α7) expressed in stably transfected cell lines. […] Rat forebrain homogenates were included to allow comparison between the heterologous and native α4β2 and α7 nAChRs. See Table 1 for binding affinity values (Ki) of the ligands at the three major nAChR subtypes (α3β4. α4β2 and α7).

α3β4 nAChR = α3β4 nAChR (Rattus norvegicus (Rat), UniProt P04757+P12392); assay: [3H]-epibatidine competition binding, α3β4
Method: as §1, §2, §3, §4

α7 nAChR = α7 nAChR (Rattus norvegicus (Rat), UniProt Q05941); type: binding
Method: as §1, §2, §3, §4

rat α3β4 nAChRs = rat α3β4 nAChRs (Rattus norvegicus (Rat), UniProt P04757+P12392); assay: 86Rb+ efflux assay (activation and desensitization), α3β4; type: cell-based
Method: (§5) In Vitro Effects on nAChR Function. […] Their agonist activities were assessed by measuring stimulated ^86Rb^+ efflux from stably transfected cells, either expressing human α4β2 nAChRs or rat α3β4 receptors.
as §2
(§6) ^86Rb^+ Efflux Assay. Functional properties of compounds at nAChRs expressed in the transfected cells were measured using ^86Rb^+ efflux assays as described previously. In brief, cells expressing human α4β2 or rat α3β4 nAChRs were plated into 24-well plates coated with poly-D-lysine. The plated cells were grown at 37° C. for 18 to 24 hour to reach 85-95% confluence. The cells were then incubated in growth medium (0.5 mL/well) containing ^86Rb^+ (2 μCi/mL) for 4 hour at 37° C. The loading mixture was then aspirated, and the cells were washed four times with 1 mL buffer (15 mM HEPES, 140 mM NaCl, 2 mM KCl, 1 mM MgSO4, 1.8 mM CaCl2, 11 mM Glucose, pH 7.4). One mL of buffer with or without compounds to be tested was then added to each well. After incubation for 2 min, the assay buffer was collected for measurements of ^86Rb^+ released from the cells. Cells were then lysed by adding 1 mL of 100 mM NaOH to each well, and the lysate was collected for determination of the amount of ^86Rb^+ that was in the cells at the end of the efflux assay. Radioactivity of assay samples and lysates was measured by liquid scintillation counting. Total loading (cpm) was calculated as the sum of the assay sample and the lysate of each well. The amount of ^86Rb^+ efflux was expressed as a percentage of ^86Rb^+ loaded. […] For obtaining EC50 and Emax values, stimulation curves were constructed in which 8 different concentrations of a ligand were included in the assay. […] EC50, Emax and IC50(10′) values were determined by nonlinear least-squares regression analyses (GraphPad, San Diego, Calif.).
(§7) The functional properties of the ligands were determined by ^86Rb^+ efflux assays in cells expressing α3β4 and α4β2 nAChR subtypes. The functional activity of each ligand was measured for its agonism, antagonism and desensitization ability. Agonist activity for each of the ligands was tested at eight different concentrations. […] The full concentration-effect curves generated potency (EC50) and efficacy (Emax) of each ligand. […] We tested each ligand for antagonist activity at eight concentrations. The potency (IC50(0′)) of each ligand as an antagonist was derived from the full concentration-effect curves.

ferrets = assay: Emesis studies in ferrets; type: in vivo, ferret (Mustela putorius furo); conditions: 0.5 mg/kg s.c.
Method: Emetic Effects of Compound (S)-15 (YL-1-127) in Ferrets. Effects of (S)-15 in causing nausea and emesis were assessed in a ferret model. For comparison, varenicline was also tested. […] In general, all animals remained alert and active with periods of inactivity that mirrored their baseline behavior within the 1 hr observation period.
In one animal, this behavior was accompanied by oral stereotypy (licking), whereas in two animals it was interspersed by episodes of backward walking. On the average, these behaviors manifested around ˜2.20 min. […] Occasionally, when animals tried to ambulate they would immediately cease their movement after each attempt. This would be followed by a momentary increase in breathing, giving the impression that the animal was in distress.
General Procedures for Emesis Studies in Ferrets. Studies were undertaken in male ferrets (Mustela putorius furo) weighing 0.9-1.5 kg (Marshall Farms, N.Y.). They were housed in controlled conditions of room temperature (22° C.) and light (12:12 h light-dark cycle) with free access to food and water. Prior to each experiment, food was withheld overnight, whereas water was provided ad libitum.
Emetic testing consisted of placing animals individually in a polycarbonate enclosure. Following a 30 min acclimation period, each animal randomly received a subcutaneus injection of varencline or compound (S)-15 (YL-1-127) in the subscapular region. A 60 min observation and video recording followed the drug administration. […] All drugs were dissolved in sterile saline.
Video analysis of the incidence of emesis, stereotypical behaviors (such as licking, mouth-clawing, backward walking, gagging, and burying of the head in cage) and GI side effects (diarrhea) was done off-line. Stereotypical behaviors are thought to be reflective of a subjective sensation of nausea. The emetic index of a drug was calculated as the […] of animals displaying emesis (one or more times in 60 min) divided by the total number of animals tested. An emetic episode was defined as the forceful oral expulsion of liquid or solid upper gastrointestinal contents that is temporally separated from another by at least 30 s.
The Nausea Index for the stereotypical behaviors was derived from the mean±SEM number of nausea behaviors observed among all animals in a given treatment group. Significance was determined at p<0.05.

human α4β2 nAChRs = human α4β2 nAChRs (Homo sapiens (Human), UniProt P17787+P43681); assay: 86Rb+ efflux assay (activation and desensitization), α4β2; type: cell-based; conditions: read-out: Emax α4β2 nAChRs
Method: as §5, §2, §6, §7

[1] = Table 1, mean of 3 to 5 measurements

SMILES: CCCCC#Cc1cnc(C)c(OC[C@H]2CCN2)c1 [(R)-15, (R)-3-(azetidin-2-ylmethoxy)-5-(hex-1-ynyl)-2-methylpyridine]
- Ki (α4β2 nAChR; Table 1, mean of 3 to 5 measurements, read-out: Ki α4β2): 0.74 µM
- Ki Ratio α3β4/α4β2 (α4β2 nAChR): 270
- Ki Ratio α7/α4β2 (α4β2 nAChR): 220
- Ki (α3β4 nAChR; [1]): 200 µM
- Ki (α7 nAChR; [1]): 160 µM
- Ki (α7 nAChR; Table 3 (Example 4)): 120 µM

SMILES: CCCCC#Cc1cnc(C(F)(F)F)c(OC[C@@H]2CCN2)c1 [compound 32, (S)-3-(azetidin-2-ylmethoxy)-5-(hex-1-ynyl)-2-(trifluoromethyl)pyridine hydrochloride]
- Ki (α4β2 nAChR): > 100 µM
- Ki (α3β4 nAChR; [1]): > 100 µM

SMILES: c1cnc2cc3c(cc2n1)[C@@H]1CNC[C@H]3C1 [Varenicline]
- Emax (rat α3β4 nAChRs; read-out: Emax α3β4 nAChRs): 90%
- gagging (retching), mean # of episodes (ferrets): 2.80 ± 1.63
- time post-injection at which locomotor behavior was noticeably reduced (ferrets): ~1.05 min
- emetic episodes (ferrets; 1 hr observation): no emetic episodes were observed
- time at which nausea behaviors manifested (ferrets; average): ~2.20 min
- animals with drug induced nausea (gagging) (ferrets; animals affected/tested): 4/5

SMILES: CCCCC#Cc1cnc(C)c(OC[C@H]2CCCN2)c1 [(R)-16, (R)-5-(hex-1-ynyl)-2-methyl-3-(pyrrolidin-2-ylmethoxy) pyridine]
- Ki (α4β2 nAChR; Table 3 (Example 4), read-out: Ki α4β2): 9.9 µM
- Ki Ratio α3β4/α4β2 (α4β2 nAChR): 22
- Ki Ratio α7/α4β2 (α4β2 nAChR): 11
- Ki (α3β4 nAChR; Table 3 (Example 4)): 22 µM
- Ki (α7 nAChR; [1]): 110 µM

SMILES: CN1CCC[C@H]1c1cccnc1 [(—)-Nicotine, (−)-nicotine, reference compound]
- Emax (human α4β2 nAChRs): 100%
- Emax α3β4 nAChRs (rat α3β4 nAChRs): full agonist activities
